Publication PMC12089509, “NorA Efflux Pump Inhibitors: Expanding SAR Knowledge of Pyrazolo[4,3‐c][1,2]benzothiazine 5,5‐Dioxide Derivatives” (Archiv Der Pharmazie, 2025)
Read-outs that look alike come from different tables or passages of the source.

How the values were obtained:
[1] = test system: Staphylococcus aureus SA-1199B; assay: MIC determination (broth microdilution) against SA-1199B; format: cell-based; conditions: SA1199B
From the text: In this study, the S. aureus strains SA‐1199B (overexpressing norA) and its isogenic parent SA‐1199 (wild type), the pair SA‐K1902 (norA‐depleted) and SA‐K2378 (complemented with a pCU1 plasmid harboring the norA promoting and coding region from SA‐1199B), were used to test EPI activity as described in a previous study. Furthermore, the S. aureus ATCC 29213 was used as the reference strain in MIC determination experiments.

[2] = molecular target: T1, S. aureus NorA efflux pump (SA-1199B strain, overexpresses the norA gene) (Staphylococcus aureus, UniProt P0A0J7); assay: EtBr efflux inhibition assay; format: cell-based; conditions: for inhibition at 50 µM: read-out: EtBr efflux inhibition (%), compound at 50 µM, SA-1199B; for inhibition at 10 µM: read-out: EtBr efflux inhibition (%), compound at 10 µM, SA-1199B
T1 construct: endogenous in cells; host or cells: S. aureus SA-1199B (overexpresses norA; isogenic parent SA-1199)
Method: EtBr efflux inhibition assays were conducted using the S. aureus SA‐1199B strain, which overexpresses the norA gene and has an A116E GrlA substitution. Each compound was tested at 50 µM (see Figure 2). The starting hit compound 1 was used as the internal standard for comparison with the previously reported data.
The cells were grown overnight in cation‐supplemented Mueller–Hinton broth (CAMHB) without any additives at 35°C. The organisms were subsequently diluted into CAMHB to obtain an optical density at 600 nm (OD600) of 0.7–0.8. Subsequently, the cells were pelleted and resuspended at an OD600 of 0.8 in 0.5 mL aliquots of CAMHB containing EtBr and carbonyl cyanide m‐chlorophenylhydrazone (CCCP) to “load” the cells with EtBr (final concentrations of 25 μM for EtBr and 100 μM for CCCP). Following 20 min of incubation at room temperature, the cells were pelleted and resuspended in 1 mL of fresh CAMHB. Immediately thereafter, 200 μL aliquots were transferred into the wells of white 96‐well plates, which either lacked or contained 50 or 10 μM of each test compound. Fluorescence was monitored continuously using a microplate reader (Infinite M200 Pro, TECAN) at excitation and emission wavelengths of 485 and 645 nm, respectively, for a period of 5 min. The experiments were conducted in triplicate, with two technical replicates per biological replicate. The efflux activity of the SA‐1199B strain was expressed as a percentage of fluorescence decrease over a 5‐min time course. The inhibition of this efflux by the test compounds was determined using the following equation: ([efflux in the absence] ‐ [efflux in the presence of test [compound])/[efflux in the absence of test compound] × 100, which yielded the percent efflux inhibition observed.
^a Experiments were performed in triplicate with two technical replicates per biological replicate. Efflux activity of SA-1199B was expressed as percent fluorescence decrease over a 5 min time course. Inhibition of this efflux by test compounds was determined using the equation [efflux in the absence] − [efflux in the presence of test [compound]/[efflux in the absence of test compound] × 100, giving the percent efflux inhibition observed.

[3] = test system: Staphylococcus aureus SA-1199B; format: cell-based
From the text: For purposes of comparison, compound 1 was included as a reference.

[4] = test system: S. aureus SA-1199 (wild type); assay: Synergistic assay with CPX against wild-type SA-1199; format: cell-based, Staphylococcus aureus; conditions: EPI at 3.13 µg/mL with CPX
From the text: (§1) This finding aligns with their mechanism of action, which involves the inhibition of NorA, which is only basally expressed in the wild‐type SA‐1199 strain.

[5] = test system: S. aureus SA-1199 (wild type); assay: MIC determination against wild-type SA-1199; format: cell-based; conditions: Staphylococcus aureus, compound alone
From the text: as §1

T1 sequence (P0A0J7 whole entry): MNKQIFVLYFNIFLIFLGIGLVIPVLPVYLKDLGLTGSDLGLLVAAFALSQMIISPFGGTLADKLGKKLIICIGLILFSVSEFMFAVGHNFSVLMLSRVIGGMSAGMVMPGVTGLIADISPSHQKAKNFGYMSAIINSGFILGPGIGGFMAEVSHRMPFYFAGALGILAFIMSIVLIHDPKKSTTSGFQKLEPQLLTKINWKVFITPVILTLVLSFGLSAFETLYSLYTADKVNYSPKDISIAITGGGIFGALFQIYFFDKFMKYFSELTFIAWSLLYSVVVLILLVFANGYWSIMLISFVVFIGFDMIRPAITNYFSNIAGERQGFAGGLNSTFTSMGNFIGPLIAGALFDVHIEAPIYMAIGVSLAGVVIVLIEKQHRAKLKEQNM

SMILES | MIC [1] | inhibition at 50 µM [2] | N° fold CPX MIC reduction ([3]; EPI at 12.5 µg/mL) | synergistic effect with CPX [4] | inhibition at 10 µM [2] | MIC [5] | N° fold CPX MIC reduction ([3]; EPI at 3.12 µg/mL) | N° fold CPX MIC reduction ([3]; EPI at 6.25 µg/mL)
CN1c2c(-c3ccc(Cl)cc3)nn(-c3ccc([N+](=O)[O-])cc3)c2-c2ccccc2S1(=O)=O [Compound 2] | > 50 µg/mL | 0% |  |  |  |  |  | 
Cc1nn(-c2ccc([N+](=O)[O-])cc2)c2c1NS(=O)(=O)c1ccccc1-2 [Compound 4] | > 50 µg/mL | 0% |  |  |  |  |  | 
Cc1nn(-c2ccc([N+](=O)[O-])cc2)c2c1S(=O)(=O)Nc1ccccc1-2 [Compound 5, 3‐Methyl‐1‐(4‐nitrophenyl)‐1,5‐dihydropyrazolo[4,3‐c][2,1]benzothiazine 4,4‐dioxide] | > 50 µg/mL | 0% |  |  |  |  |  | 
Cc1nn(-c2ccc([N+](=O)[O-])cc2)c2c1N(C)S(=O)(=O)c1ccccc1-2 [Compound 6] | > 50 µg/mL | 22% |  |  |  |  |  | 
Cc1nn(-c2ccc([N+](=O)[O-])cc2)c2c1S(=O)(=O)N(C)c1ccccc1-2 [Compound 7, 3,5‐Dimethyl‐1‐(4‐nitrophenyl)‐1,5‐dihydropyrazolo[4,3‐c][2,1]benzothiazine 4,4‐dioxide] | > 50 µg/mL | 3% |  |  |  |  |  | 
Cc1cc(-c2ccccc2NS(C)(=O)=O)n(-c2ccccc2)n1 [Compound 8, N‐[2‐(3‐Methyl‐1‐phenyl‐1H‐pyrazol‐5‐yl)phenyl]methanesulfonamide] | > 50 µg/mL | 0% | 2 fold |  |  |  |  | 
O=S1(=O)Nc2c(-c3ccc(Cl)cc3)n[nH]c2-c2ccccc21 [Compound 9, 3‐(4‐Chlorophenyl)‐1,4‐dihydropyrazolo[4,3‐c][1,2]benzothiazine 5,5‐dioxide] | > 50 µg/mL | 12% | 2 fold |  |  |  |  | 
CN1c2c(-c3ccccc3)n[nH]c2-c2ccccc2S1(=O)=O [Compound 11, 4‐Methyl‐3‐phenyl‐1,4‐dihydropyrazolo[4,3‐c][1,2]benzothiazine 5,5‐dioxide] | > 50 µg/mL | < 70% |  |  |  |  |  | 
CN1c2c(-c3ccc(F)cc3)n[nH]c2-c2ccccc2S1(=O)=O [Compound 12, 3‐(4‐Fluorophenyl)‐4‐methyl‐1,4‐dihydropyrazolo[4,3‐c][1,2]benzothiazine 5,5‐dioxide] | > 50 µg/mL | 87% |  | did not show any synergistic effect | 22% | > 50 µg/mL |  | 
CN1c2c(-c3ccc(F)c(Cl)c3)n[nH]c2-c2ccccc2S1(=O)=O [Compound 13, 3‐(3‐Chloro‐4‐fluorophenyl)‐4‐methyl‐1,4‐dihydropyrazolo[4,3‐c][1,2]benzothiazine 5,5‐dioxide] | > 50 µg/mL | 100% | 4 fold | did not show any synergistic effect | 0% | > 50 µg/mL | 2 fold | 
CCN1c2c(-c3ccc(F)cc3)n[nH]c2-c2ccccc2S1(=O)=O [Compound 14, 4‐Ethyl‐3‐(4‐fluorophenyl)‐1,4‐dihydropyrazolo[4,3‐c][1,2]benzothiazine 5,5‐dioxide] | > 50 µg/mL | 57% | 2 fold |  |  |  |  | 
O=S1(=O)c2ccccc2-c2[nH]nc(-c3ccc(F)cc3)c2N1CCCO [Compound 15, 3‐[3‐(4‐Fluorophenyl)‐5,5‐dioxidopyrazolo[4,3‐c][1,2]benzothiazin‐4(1H)‐yl]propan‐1‐ol] | > 50 µg/mL | 17% | 2 fold |  |  |  |  | 
CNC(=O)CN1c2c(-c3ccc(F)cc3)n[nH]c2-c2ccccc2S1(=O)=O [Compound 16, 2‐[3‐(4‐Fluorophenyl)‐5,5‐dioxidopyrazolo[4,3‐c][1,2]benzothiazin‐4(1H)‐yl]‐N‐methylacetamide] | > 50 µg/mL | 22% | 2 fold |  |  |  |  | 
CNCCN1c2c(-c3ccc(F)cc3)n[nH]c2-c2ccccc2S1(=O)=O [Compound 17, 2‐[3‐(4‐Fluorophenyl)‐5,5‐dioxidopyrazolo[4,3‐c][1,2]benzothiazin‐4(1H)‐yl]‐N‐methylethanamine] | > 50 µg/mL | 57% |  |  |  |  |  | 
CN1c2c(-c3ccc(Cl)cc3)nn(CCN3CCCCC3)c2-c2ccccc2S1(=O)=O [Compound 18, 3‐(4‐Chlorophenyl)‐4‐methyl‐1‐(2‐piperidin‐1‐ylethyl)‐1,4‐dihydropyrazolo[4,3‐c][1,2]benzothiazine 5,5‐dioxide] | > 50 µg/mL | > 70% | 4 fold | did not show any synergistic effect | 37% | > 50 µg/mL |  | 2 fold
CN1c2c(-c3ccc(F)cc3)nn(C)c2-c2ccc(OCCN3CCCCC3)cc2S1(=O)=O [Compound 20, 3‐(4‐Fluorophenyl)‐1,4‐dimethyl‐7‐(2‐piperidin‐1‐ylethoxy)‐1,4‐dihydropyrazolo[4,3‐c][1,2]benzothiazine 5,5‐dioxide] | > 50 µg/mL | > 70% | 8 fold | did not show any synergistic effect | 33% | > 50 µg/mL |  | 2 fold
CN1c2c(-c3ccc(F)cc3)nn(C)c2-c2ccc(OCC(O)CO)cc2S1(=O)=O (stereo not drawn) [Compound 21, 3‐{[3‐(4‐Fluorophenyl)‐1,4‐dimethyl‐5,5‐dioxido‐1,4‐dihydropyrazolo[4,3‐c][1,2]benzothiazin‐7‐yl]oxy}propane‐1,2‐diol] | > 50 µg/mL | 0% |  |  |  |  |  | 
COc1ccc2c(c1)S(=O)(=O)N(C)c1c(-c3ccc(F)cc3)nn(C)c1-2 [Compound 22, 3‐(4‐Fluorophenyl)‐7‐methoxy‐1,4‐dimethyl‐1,4‐dihydropyrazolo[4,3‐c][1,2]benzothiazine 5,5‐dioxide] | > 50 µg/mL | 22% | 2 fold |  |  |  |  | 
CCN(CC)CCOC1=C(C(=O)c2ccc(F)cc2)N(C)S(=O)(=O)c2ccccc21 [Compound 23, {4‐[2‐(Diethylamino)ethoxy]‐2‐methyl‐1,1‐dioxido‐2H‐1,2‐benzothiazin‐3‐yl}(4‐fluorophenyl)methanone] | > 50 µg/mL | 36% | 2 fold |  |  |  |  | 
CN1C(C(=O)c2ccc(F)cc2)=C(OCCN2CCCCC2)c2ccccc2S1(=O)=O [Compound 24, (4‐Fluorophenyl)[2‐methyl‐1,1‐dioxido‐4‐(2‐piperidin‐1‐ylethoxy)‐2H‐1,2‐benzothiazin‐3‐yl]methanone] | > 50 µg/mL | 38% | 2 fold |  |  |  |  | 
